Data set [1] relates to B-cells isolated from individuals with autoimmune disease. As to the kind of experiment: MTT cell viability, sphingomyelin enhancement of chemotherapy on B-cells (Example 5). In kind it is cell-based, human. As to the method:
(§1) Sphingomyelin enhancement of chemotherapy is evaluated by measuring its effect on 5-fluorouracil or doxorubicin (DOX) treatment of B-cells isolated from individuals with autoimmune disease and grown in culture. Cell viability is measured using the dye MTT (3-(4,5-dimethylthiazol-2-yl)-2,5-diphenyl tetrazolium bromide) in a 24-well chamber format. See Mosmann, T., J. Immunol. Methods, 65:55-63 (1983). B-cells are maintained in RPMI media supplemented with 10% fetal calf serum. Human umbilical cord venous endothelial cells (HUVEC) from pooled donors (Clonetics/BioWhittaker, San Diego, Calif.) are used as controls. Cells (10^4/well) are plated in the presence of varying concentrations of drug and sphingomyelin and grown in a humidified incubator. As an additional control, egg yolk phosphatidylcholine (PC) (Sigma, St. Louis, Mo.) is added to the cells instead of sphingomyelin. Drugs and lipids are added to HUVEC cells 24 hours after plating, but otherwise are treated the same. After four days, the media is replaced with media containing 0.5 mg/ml MTT and incubated two to four hours at 37° C. An equal volume of 0.04 N HCl in isopropanol is added, and the absorbance at 570 nm is measured. The IC50 values, defined as the concentration of drug necessary to reduce cell viability by 50%, from three to seven independent experiments are averaged and compared using ANOVA.

Data set [2] concerns Primary Sjogren's Syndrome (pSS). As to the kind of experiment: Therapy of primary Sjogren's syndrome with rituximab combined with sphingomyelin (Example 4). In kind it is in vivo, human. As to the method: They then receive a course of rituximab (Rituxan, Genentech) at 600 mg infused over 6 hours every other week for 3 doses, combined with weekly infusions of sphingomyelin at doses of 400 mg for 6 weeks. During this therapy, only 15 mg prednisolone is continued as a maintenance therapy. After the first rituximab infusion, their circulating B-cells are measured to be depleted by 90%, which continues for about 8 months. Their main subjective symptoms of dry mouth and eyes show improvement, as well as their parotid gland reduction is noted, and also an improvement in their dry cough and purpura. An improvement of the objective parameters of dry eyes and dry mouth is also observed, and this improvement is maintained for at least 3 months after this therapy course. The combination of sphingomyelin with apoptosis-inducing agent is shown to be synergistic for treatment of pSS.

For data set [3], the system named is rheumatoid arthritis. As to the kind of experiment: Therapy of rheumatoid arthritis with sphingomyelin, patient one (Example 1). In kind it is in vivo, human. As to the method: Various forms of sphingomyelin can be obtained in powder form from Sigma Chemicals (St. Louis, Mo.). Mix 1 g of sphingomyelin powder with 9.5 ml of sterile saline or phosphate buffered saline (PBS) and QS to 10 ml. Sonicate the resulting suspension in a water bath at 80-90° C. for 1 hour. The suspension should be administered within one hour of sonication and should be approximately room temperature (25-30° C.). The suspension can be stored at 4° C.; however, it should be re-sonicated for 30 minutes in a water bath at 80-90° C. before administration. […] They have a history of rheumatoid arthritis (RA) that presented about 5 years ago, and has undergone numerous treatments with corticosteroids, cyclophosphamide, and methotrexate, with responses of reduced durations and then relapses. They now present to their rheumatologist with active RA as judged by the presence of 5 tender and 4 swollen joints (out of 44 examined), morning stiffness for more than 45 minutes, an elevated erythrocyte sedimentation rate (ESR) of 40 mm/h (Westergren method), and an elevated C-reactive protein (CRP) blood level of 80 mg/L, as well as increased levels of rheumatoid factor (RF) of IgM, IgG, and IgA isotypes. All other laboratory tests, except circulating red blood cells (mild anemia), are within the normal range. They have been taking a nonsteroidal anti-inflammatory drug (NSAID; ibuprofen), 20 mg/day of prednisolone, and doses of cyclophosphamide i.v. (750 mg). The patient is allowed to continue on these medications, and is also given i.v. infusions of sphingomyelin (prepared as described above) in phosphate-buffered sterile saline and QS twice weekly at doses of 400 mg, continuing for 3 weeks. […] The patient is considered to have improved upon adding sphingomyelin i.v. therapy to their prior medications, to which they relapsed. Subsequently, they have their prednisolone maintenance therapy tapered to 5 mg daily with 200 mg sphingomyelin given 3 times weekly for 8 weeks, and is able to function as before without any deterioration of their condition, with increase in their physical activities and general reduction in joint pain and swelling.

In data set [4] the test system is Systemic Lupus Erythematosus (SLE). Nature of the data set: Therapy of systemic lupus erythematosus with sphingomyelin, epratuzumab and prednisolone (Example 2). In kind it is in vivo, human. An excerpt:
patient two is a person with two healthy children, and with a history of SLE for at least 8 years. They have received prior cyclophosphamide, azathioprine, and corticosteroid treatments, with recurrent activity flares resulting in increasing disability. They have had evidence of myelosuppression, with lymphopenia, resulting in tapering of their medications. Prior to receiving the current experimental therapy, they are confirmed to have a diagnosis of SLE according to the American College of Rheumatology revised criteria, and moderately active disease (a score of 10 for total British Isles Lupus Assessment Group (BILAG) disease activity) at study entry. Their current medication of prednisolone, 15 mg/day, is continued, and they receive epratuzumab (anti-CD22 humanized monoclonal antibody) i.v. at 360 mg/m^2 once weekly every other week for a total of 4 infusions. Prior to each infusion, they are medicated with acetaminophen (Tylenol) and antihistamine (Benadryl). They are also given an infusion of 300 mg sphingomyelin twice weekly for 8 weeks. Two and 6 weeks after completion of this therapy, they are evaluated, and it is decided that their prednisolone doses of 15 mg/day can be tapered to 10 mg/day, because of initial evidence of improvement of their BILAG scores in 3 of the 8 body systems. Four weeks later, the SLE panel of tests (autoantibodies, C3, C-reactive protein, erythrocyte sedimentation rate), and physical examination indicate progressive improvement, with less fatigue, lethargy, malaise, anorexia, reduction of malar erythemia, and reduction of arthritis. They are considered to have about a 40% improvement of their condition as a result of the investigational therapy.

In data set [5] the test system is rheumatoid arthritis. As to the kind of experiment: Therapy of rheumatoid arthritis with adalimumab combined with sphingomyelin (Example 3). In kind it is in vivo, human. As to the method: A person with 3 healthy children presents with a history of rheumatoid arthritis (RA) for 9 years, and a prior therapy history of methotrexate, leflunomide, prednisolone, sometimes in combination. They continue on their methotrexate (10 mg) and prednisolone (10 mg) daily doses, and is now given the TNF antagonist, adalimumab (Humira, Abbott Laboratories) subcutaneously at 40 mg every other week, combined with weekly infusions of sphingomyelin at a dose of 400 mg. This therapy is continued for 12 weeks, and they are evaluated for response every 4 weeks after completion of their course of therapy by ACR 20%, 50% and 70% scoring, and EULAR responses.

In data set [6] the test system is Human umbilical cord venous endothelial cells (HUVEC). As to the kind of experiment: MTT cell viability, control HUVEC cells (Example 5). In kind it is cell-based. As to the method: as §1
Data set [7] relates to chronic idiopathic thrombocytopenia purpura. Nature of the data set: Treatment of a patient with chronic idiopathic thrombocytopenia purpura (Example 6). Format: in vivo, human. As to the method: A person with chronic idiopathic thrombocytopenia purpura has been treated with gamma globulins and high-dose dexamethasone, but the disease progresses. They undergo splenectomy, which fails to stabilize the disease. Their platelet count falls to less than 20,000/microliter, and hemorrhagic events increase in frequency. The patient is then treated with epratuzumab, 480 mg intravenously each week, plus 400 mg/wk of sphingomyelin, for a period of six weeks. Four weeks after the last dose of epratuzumab and sphingomyelin, platelet number is increased by 300%, and the hemorrhagic events disappear.

Data set [8] has as its system progressive rheumatoid arthritis. Format: in vivo, human. An excerpt: A person, with severe progressive rheumatoid arthritis of the finger joints, wrists, and elbows, has failed therapy with methotrexate, and obtains only minor relief when placed on Enbrel therapy.
For the next data set, the system named is myasthenia gravis. As to the kind of experiment: Treatment of a patient with myasthenia gravis, epratuzumab plus sphingomyelin (Example 8). Format: in vivo, human. The procedure: A person has failed all conventional therapy for myasthenia gravis, and is admitted to a neurological intensive therapy unit. The patient is stabilized by plasma exchange, and is given intravenous immunoglobulin to reduce the titer of anti-acetylcholine receptor antibody. The patient remains bedridden, and is then treated with epratuzumab, 600 mg intravenously each week, plus 400 mg/wk of sphingomyelin, for a period of six weeks. […] Two months after the last treatment the patient is mobile, and is released from the hospital.

[9] abbreviates: B-cells, MTT after four days, from IC50 values of drug.

These results are taken from US7683044B2, “Sphingomyelin therapy of autoimmune disease” (Center for Molecular Medicine and Immunology, priority 1999, dated 2010).

Where two headings read alike, the source gives them in different places.

For “phosphatidylcholine [PC, reference compound]”, the “enhancement of chemosensitivity (5FU, DOX)” value in [1] (lipid control added to the cells instead of sphingomyelin) is “does not elicit a similar effect”.
“rituximab: Rituximab (Rituxan, anti-CD20) antibody [reference compound]”: the “depletion of circulating B-cells” value in data set [2] (after the first rituximab infusion (600 mg), combined with weekly sphingomyelin 400 mg) was found to be 90%. Besides, the “duration of circulating B-cell depletion” value in [2] (rituximab 600 mg every other week x3 + sphingomyelin 400 mg weekly for 6 weeks) is “about 8 months”.
Regarding sphingomyelin, the “ESR, CRP and RF factor levels above the normal range” value with rheumatoid arthritis [3] (4 and 6 months after onset, therapy of prednisolone, NSAID and sphingomyelin repeated at 3 months) is listed as “about 20%”. For the same substance, the “reduction of joint stiffness and swelling compared to baseline” value in the data set on rheumatoid arthritis [3] (4 and 6 months after onset, therapy repeated at 3 months) was “about 50%”. In addition, in the data set on rheumatoid arthritis [3] (4 and 6 weeks after sphingomyelin 400 mg i.v. twice weekly for 3 weeks, added to ibuprofen, prednisolone, cyclophosphamide), the “improvement in the ACR20 score” value was found to be 20%. Moreover, the “improvement in the elevated CRP, RF and ESR levels” value with rheumatoid arthritis [3] (4 and 6 weeks after sphingomyelin 400 mg i.v. twice weekly for 3 weeks, added to prior medications) was “about 50%”. For the same substance, the “joint stiffness in the morning” value in the data set with rheumatoid arthritis [3] (4 and 6 weeks later, baseline more than 45 minutes) was “less than 15 minutes”. Moreover, the “combination effect with standard anti-rheumatoid therapeutic agents” value in the data set with rheumatoid arthritis [3] (compared with either sphingomyelin or standard agents alone) is listed as “more than additive effect”. Besides, the “improvement of BILAG scores, number of body systems” value in data set [4] (2 and 6 weeks after sphingomyelin 300 mg twice weekly for 8 weeks + epratuzumab 360 mg/m^2 x4 + prednisolone 15 mg/day) is 3 of the 8 body systems. Moreover, in data set [4] (four weeks later, sphingomyelin + epratuzumab + prednisolone), the improvement of condition is on record as roughly 40%. Also, the “combination effect with prednisolone and epratuzumab” value in data set [4] (more effective than either agent alone) is recorded as “synergistic effect”. Besides, the overall response entry in the data set on rheumatoid arthritis [5] (6-month evaluation, anti-TNF therapy combined with sphingomyelin) is recorded as “good response”. For the same substance, the ACR response entry with rheumatoid arthritis [5] (end of 12-week course, sphingomyelin 400 mg weekly + adalimumab 40 mg s.c. every other week + methotrexate, prednisolone) is “ACR50 improvement”. In the data set on rheumatoid arthritis [5] (end of 12-week course, sphingomyelin + adalimumab + methotrexate, prednisolone), the EULAR response result is “moderate EURAR response”. Moreover, in the data set with rheumatoid arthritis [5] (sphingomyelin 400 mg weekly + adalimumab, 12 weeks), the tolerability of therapy result is given as “tolerated well”. For the same substance, the “duration of improvement after therapy course” value in data set [2] (rituximab + sphingomyelin) is given as “at least 3 months”. Besides, the “objective parameters of dry eyes and dry mouth” value in [2] (rituximab + sphingomyelin 400 mg weekly for 6 weeks, prednisolone 15 mg maintenance) is given as “improvement”. Besides, the “combination effect with apoptosis-inducing agent” value in [2] (sphingomyelin with rituximab) is reported as “synergistic”. Moreover, the “increase of 5FU sensitivity” value in data set [1] (setting [9]) is recorded as 140%. The “increase of DOX sensitivity” value in [1] (setting [9]) came out at 340%. The “sensitization to 5FU or DOX therapy” value in [6] is reported as “does not sensitize”. In addition, in data set [7] (four weeks after last dose of epratuzumab and sphingomyelin), the hemorrhagic events entry is recorded as “disappear”. Moreover, the “increase of platelet number” value in [7] (four weeks after last dose, epratuzumab 480 mg i.v. weekly + sphingomyelin 400 mg/wk for six weeks) came out at 300%. For the same substance, in [7] (three months after the last treatment), the disease status entry was “full remission”. Further, the “improvement in measures of disease activity” value is on record as 70% in [8] (6 months after the second therapy with veltuzumab and sphingomyelin); 30% in [8] (after 3 weeks, veltuzumab 80 mg i.v. weekly + sphingomyelin 400 mg/wk for eight weeks). The “duration for which the improvement is maintained” value in [8] (after first course of veltuzumab + sphingomyelin) was found to be 6 months. In addition, the “normal B-cells in the blood” value in data set [8] (veltuzumab + sphingomyelin) is “significantly reduced”. Besides, the “drop in B-lymphocytes” value with myasthenia gravis (one week after last treatment, epratuzumab 600 mg i.v. weekly + sphingomyelin 400 mg/wk for six weeks) turned out to be 50%. For the same substance, the “titer of the anti-acetylcholine (receptor antibody)” value in the data set on myasthenia gravis (one week after last treatment, epratuzumab + sphingomyelin) is listed as “significant drop”. Besides, the clinical status entry in the data set on myasthenia gravis (two months after the last treatment) was “mobile”.
Regarding veltuzumab: anti-CD20 humanized Mab, the human anti-veltuzumab antibodies entry in data set [8] (human, in vivo) is recorded as “No human anti-veltuzumab antibodies are observed”.
